Source: patent US20150071918A1, “PEPTIDES FOR THE TREATMENT OF CANCER” (H. LEE MOFFITT CANCER CENTER AND RESEARCH INSTITUTE, INC., priority 2012, published 2015)
Entries after “also recorded” stand apart in the source; their conditions may differ. *1 amine or outer side, *2 acyl side, *3 side chain or, on linkers, in order; H or OH if unused. Where a SMILES comes first, the peptide text is derived from it. Bridges are numbered along the chain shown (N, C = ends). [ ]: non-standard residue; d: D form. The star is where a group is joined. dProlinol(O-CH2CO) = O=C(COC[C@H]1CCCN1[*:1])[*:2]; N(2-Aminoethyl)Gly = O=C(CN(CCN[*:3])[*:1])[*:2]; Nle = CCCC[C@H](N)C(=O)O; Ms = CS(=O)(=O)*

Tests used:
[1] = Weight of mice and overt signs of toxicity under peptide injection; type: in vivo; conditions: mice treated with cyclized HYD1
Description: FIG. 37 is a graph showing the effect of cyclized HYD1 (MTI-101) injection on the weight of mice.
(§1) FIG. 49. Cyclic HYD1 (MTI-101) was dosed daily at 8 mpk for the first week and then every other day for 4 weeks. The mice were bled weekly to measure paraprotein as a surrogate for tumor burden. […] Three of five vehicle-treated control animals had died by 35 days which contributes to the large SD.

[2] = system: H929 myeloma cells engrafted into the bone implant; test: MM SCID-Hu in vivo model, tumor burden by circulating Kappa/paraprotein levels (ELISA); parameters: species or system mice; conditions: H929, 8 mg/kg i.p.
Description: Briefly, 50,000 H929 myeloma cells were engrafted into the bone implant for 10 days prior to initiation of peptide treatment. Following tumor engraftment mice were randomized (0 time point) and injected with 8 mg/kg c-HYD1 or vehicle control (VC) daily (I.P. injections) for 14 days and every other day from day 14-28 at which time treatment stopped. Tumor burden was measured by circulating Kappa levels by ELISA weekly. N=10 mice for vehicle control (VC) and 9 mice for c-HYD1 treated.
as §1
FIGS. 61A-61C. MTI-101 inhibits tumor growth and increases survival in two independent myeloma in vivo models. […] FIG. 61A: Scid-hu model: Following tumor engraftment (2 weeks) mice were randomized (0 time point) and injected with 8 mg/kg MT101 or vehicle control (control) daily (i.p. injections) for 14 days and every other day from day 14-28 at which time treatment stopped. Tumor burden was measured by circulating paraprotein (K light chain) levels by ELISA weekly. […] Images were quantified utilizing Image J and tumor volume in the bone was quantified relative to the entire bone volume (n=5 tibias per group).

## CCCC[C@@H]1NC(=O)CN(S(C)(=O)=O)CCNC(=O)[C@H](CCCCN)NC(=O)[C@H](CC(C)C)NC(=O)[C@H](CCCCN)NC(=O)[C@H](CC(C)C)NC(=O)[C@H](CCCCN)NC(=O)COC[C@H]2CCCN2C(=O)[C@H](Cc2c[nH]c3ccccc23)NC(=O)[C@H](C)NC(=O)[C@H](C(C)C)NC(=O)[C@H](C(C)C)NC1=O [MTI-101] (Ms-[N(2-Aminoethyl)Gly][Nle]VVAW[dProlinol(O-CH2CO)]KLKLK; lactam 1-C)
[1]
  weight loss / signs of toxicity: No weight loss or any overt signs of toxicity were observed
[1]; listed as c-HYD1
  weight loss / signs of toxicity: no apparent toxicity
[2]
  tumor growth / tumor burden: significantly reduces tumor growth (p<0.05 ANOVA)
[2]; listed as c-HYD1
  tumor growth / tumor burden: completely inhibits human MM tumor xenographs growth in SCID mice; also recorded: inhibits multiple myeloma engrafted tumor in the SCID-HU model
